Earlier results, collected in publication PMC5014611 (Bioorganic & medicinal chemistry, 2016).

Target: T1, human GIVA cPLA2 (Homo sapiens, UniProt P47712)
T1 sequence (P47712 1-749): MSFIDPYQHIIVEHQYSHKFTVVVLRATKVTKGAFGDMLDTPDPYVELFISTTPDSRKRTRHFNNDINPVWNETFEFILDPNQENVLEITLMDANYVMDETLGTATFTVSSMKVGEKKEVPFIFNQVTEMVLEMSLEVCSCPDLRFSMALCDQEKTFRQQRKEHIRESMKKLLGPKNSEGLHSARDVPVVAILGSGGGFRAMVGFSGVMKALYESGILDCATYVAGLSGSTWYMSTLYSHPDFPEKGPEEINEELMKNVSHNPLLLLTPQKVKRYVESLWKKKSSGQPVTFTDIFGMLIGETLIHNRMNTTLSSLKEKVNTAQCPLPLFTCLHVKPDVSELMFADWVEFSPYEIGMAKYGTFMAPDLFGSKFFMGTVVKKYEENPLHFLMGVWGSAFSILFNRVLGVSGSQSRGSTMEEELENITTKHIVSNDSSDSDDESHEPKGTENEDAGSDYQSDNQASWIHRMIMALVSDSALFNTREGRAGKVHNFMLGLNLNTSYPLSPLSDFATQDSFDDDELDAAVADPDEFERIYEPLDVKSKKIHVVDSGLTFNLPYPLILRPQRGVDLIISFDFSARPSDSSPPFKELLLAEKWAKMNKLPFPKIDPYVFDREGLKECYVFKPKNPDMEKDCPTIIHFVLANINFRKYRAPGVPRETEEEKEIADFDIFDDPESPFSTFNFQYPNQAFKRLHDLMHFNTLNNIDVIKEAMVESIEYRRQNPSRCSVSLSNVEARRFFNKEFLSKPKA
Settings: commercially available inhibitor

CCCCC/C=C\C/C=C\C/C=C\C/C=C\CCCC(=O)C(F)(F)F [AATFMK, arachidonoyl trifluoromethyl ketone]
GIVA cPLA2 XI(50): 0.036 mole fraction
